In patent US20240208950A1, “COMPOSITIONS AND METHODS FOR TREATMENT OF CERVICAL AND OVARIAN CANCER” (SOUTH DAKOTA BOARD OF REGENTS, priority 2021, published 2024):

Key:
[1] = test system: EMT markers and MMPs in SiHa cells; assay: Western blot for EMT markers and MMPs, SiHa; format: cell-based, human; conditions: 24 hours
Experimental: In a further example, cell lysates and western blot analysis was conducted for EMT markers and MMPs. […] In this example, about 70% of confluent SiHa and CaSki were treated with ORM-Br ([…]) for 24 hours. Cell lysates were prepared, and western blot analysis were conducted for EMT markers and MMPs analysis. The effect of ORM-Br on protein levels of cell-cycle regulatory proteins (cyclin E1 and p27) in both CaSki and SiHa cell lines are shown.
The effect of Br-ORM on protein expression in cervical cancer cells were determined by Western blot analysis by using specific antibodies.
Epithelial mesenchymal transition (EMT) is the basic characteristic of cancer cells in which epithelial cells undergo morphologic and molecular changes that transform the cells to mesenchymal, highly metastatic (invasive and motile), and drug-resistant phenotypes. Thus, targeting EMT may reduce the invasive phenotypes of a cancer cell and have significant advantage to overcome drug resistance. It has been reported that β-catenin is involved in invasion and metastasis via inducing EMT in various tumor cells. The effect of Br-ORM treatment on various EMT markers in cervical cancer cells was evaluated. […] The effect of Br-ORM on expression of EMT markers in cervical cancer cells compared to untreated group by use of qPCR analysis was determined. […] Expression of E-cadherin in cervical cancer cells treated with Br-ORM (10 μM) for 18 hours was also determined by immunofluorescence and confocal microscopy. Images were captured under 60× magnification and representative images are presented (FIG. 14G).
FIG. 14. Br-ORM decreases migration, invasion and attenuates EMT in cervical cancer cells. Effect of Br-ORM on cell migration of cervical cancer cells as determined by agarose bead (FIG. 14A), scratch wound healing (FIG. 14B), and Boyden chamber assay (FIG. 14C). AB denotes agarose bead while MC denotes migratory cells. Arrows indicate the distance of cervical cancer (CaSki and SiHa) cells migration in control and Br-ORM treated groups (FIG. 14A(i)-(ii)). […] Closure of wound was determined and photographed using phase contrast microscopy. […] Bar graph represent the quantification of migrated CaSki cells of control and Br-ORM treated groups (FIG. 14C(ii)). […] Effect of Br-ORM treatment on invasion of CaSki cells as determined by a commercially available kit (BD Biosciences) as described in materials and methods. In brief, 24 hours post-treatment of Br-ORM, invaded cells were fixed, stained and counted. […] Bar graph represent the quantification of invaded CaSki cells of control and Br-ORM treated groups (FIG. 14D(ii)). […] Effect of Br-ORM on E-cadherin expression in cervical cancer cells as determined by confocal microscopy in control and Br-ORM treated cells after 18 hours.

[2] = test system: β-catenin in SiHa cells; assay: Western blot of β-catenin in nuclear and cytoplasmic extracts, SiHa; format: cell-based, human; conditions: 15 μM, 24 hours
Experimental: In the Example shown at FIGS. 9A-9E, cells were subjected to treatment with 15 μM concentration of ORM-Br for 24 hours, nuclear extracts were prepared and western blot analysis were used to detect the protein levels of β-catenin. […] Western blots were reprobed with β-actin and Histone H3 antibodies as an internal control.
The nuclear and cytoplasmic lysates were prepared using respective buffers. The cell lysates (40 μg) were subjected to SDS-PAGE and blotted on PVDF membrane. The membranes were further blocked in 5% milk diluted in 1×TBST solution for 1 hour and incubated overnight in primary antibodies. The following day, the membranes were washed and incubated with secondary antibodies for 1 hour, washed again and developed on a UVP system using chemi-luminiscent reagents.
The EMT process in a cell is driven by growth factors or other signaling proteins such as Wnt/beta-catenin and extracellular matrix component that may stimulate cellular growth and migration. The effect of Br-ORM on β-catenin signaling was examined.
FIG. 15. Effect OF Br-ORM on β-catenin signaling and molecular docking of Br-ORM with β-catenin. Effect of Br-ORM on β-catenin distribution in cytoplasm and nucleus of CaSki and SiHa cells. […] Effect of Br-ORM on β-catenin localization in CaSki cells as determined by confocal microscopy (FIG. 15B(i)-(ii)). […]

[3] = test system: CaSki cells derived xenograft tumors; assay: Orthotopic xenograft mouse model of cervical cancer; format: in vivo, female athymic nude mice; conditions: 250 μg/mice intra-tumoral
[4] = three times per week, vs control

## COc1ccc2c(c1)OC(C)(C)C(c1ccc(Br)cc1)C2c1ccc(OCCN2CCCC2)cc1 (centres unmarked) [ORM-Br]
[1]
  EMT associated markers (N-cadherin, vimentin and snail) expression: inhibits the EMT associated markers
  expression of E-cadherin: induced the expression of E-cadherin
  expression of MMP2 and MMP9: inhibited the expression of MMP2 and MMP9
[1]; listed as Br-ORM
  EMT associated markers (N-cadherin, vimentin and snail) expression: marked inhibition
[2]
  nuclear β-catenin expression: decrease in expression of nuclear β-catenin
[2]; listed as Br-ORM
  nuclear β-catenin expression: inhibited nuclear β-catenin
[3]; [4]
  tumor volume: significantly (p<0.05) reduced
  tumor weight: significantly (p<0.05) reduced
[3]; excised tumors
  expression of E-cadherin in xenograft tumors (IHC): increase in the expression of E-cadherin
  expression of miR-200a in excised xenograft tumors (in situ hybridization): Increased expression of miR-200a
  expression of β-catenin, vimentin, snail, slug, HPV-E6, HPV-E7, and PCNA in xenograft tumors (IHC): significant downregulation
